Reference: US7893299B2, “Interleukin-1 and tumor necrosis factor-αmodulators; syntheses of such modulators and methods of using such modulators” (Nereus Pharmaceuticals, Inc., priority 2005, dated 2011)
Where two headings read alike, the source gives them in different places.

Legend:
MDA-MB-231 (Breast) = assay: 48 hr cytotoxicity, MDA-MB-231; type: cell-based, human
Protocol: (§1) B16-F10 (ATCC; CRL-6475), DU 145 (ATCC; HTB-81), HEK293 (ATCC; CRL-1573), HT-29 (ATCC; HTB-38), LoVo (ATCC; CCL-229), MDA-MB-231 (ATCC; HTB-26), MIA PaCa-2 (ATCC; CRL-1420), NCI-H292 (ATCC; CRL-1848), OVCAR-3 (ATCC, HTB-161), PANC-1 (ATCC; CRL-1469), PC-3 (ATCC; CRL-1435), RPMI 8226 (ATCC; CCL-155) and U266 (ATCC; TIB-196) are maintained in appropriate culture media. The cells are cultured in an incubator at 37° C. in 5% CO2 and 95% humidified air.
(§2) For cell growth inhibition assays, B16-F10, DU 145, HEK293, HT-29, LoVo, MDA-MB-231, MIA PaCa-2, NCI-H292, OVCAR-3, PANC-1, PC-3, RPMI 8226 and U266 cells are seeded at 1.25×10^3, 5×10^3, 1.5×10^4, 5×10^3, 5×10^3, 1×10^4, 2×10^3, 4×10^3, 1×10^4, 7.5×10^3, 5×10^3, 2×10^4, 2.5×10^4 cells/well respectively in 90 μl complete media into Corning 3904 black-walled, clear-bottom tissue culture plates. 20 mM stock solutions of compounds of Formula II, IIA, and IIB are prepared in 100% DMSO, aliquoted and stored at −80° C. Compounds of Formula II, IIA, and IIB are serially diluted and added in triplicate to the test wells resulting in final concentrations ranging from of 20 μM to 0.2 pM. […]
(§3) Following 48 hours of drug exposure, 10 μl of 0.2 mg/ml resazurin (obtained from Sigma-Aldrich Chemical Co.) in Mg^2+, Ca^2+ free phosphate buffered saline is added to each well and the plates are returned to the incubator for 3-6 hours. Since living cells metabolize Resazurin, the fluorescence of the reduction product of Resazurin is measured using a Fusion microplate fluorometer (Packard Bioscience) with λex=535 nm and λem=590 nm filters. […]
(§4) The cytotoxicity assays were performed by seeding individual cell lines at appropriate density in the 96 well flat-bottomed plates and allowed to attach for 24 hours at 37° C., 5% CO2 and 95% humidified air (RPMI 8226 and U266 cells were plated in 96 well plates on the day of compound addition). […] Cell viability was assessed 48 hours later by measuring the fluorescence of the reduction product of Resazurin by a Fusion microplate fluorometer (PerkinElmer) with λex=535 nm and λem=590 nm filters. […]

PC3 (Prostate) = assay: 48 hr cytotoxicity, PC-3; type: cell-based, human
Protocol: as §1, §2, §3, §4

[1] = system: MM cells with IL-6 or IGF-1; assay: protective effects of MM bone marrow microenvironment; type: cell-based
THP-1 cells = assay: resazurin viability assay in THP-1 cells; type: cell-based, human; details: * mild, ** marked reduction in viability, in % (unit assumed)
Protocol: The ability to inhibit TNF-α production was analyzed in THP-1 cells, a human acute monocytic leukemia cell line that is widely used to assess monocyte functions. In order to induce maturation, THP-1 cells were plated at 1×10^6 cells/ml and pretreated with 5 nM PMA for two days. Differentiated THP-1 cells were pretreated with various concentrations of TTL3 or its analogs for 1 hour, followed by a 4 hour incubation with 1 μg of LPS (Sigma, St. Louse, Mo.). The p38 inhibitor (SB 203580; Sigma, St. Louis, Mo.) was used as a positive control. Supernatants were collected and stored at −80° C. until assayed for TNF-α activity. A resazurin assay was performed for each analog to evaluate the effects on cell metabolism and viability.
A preparation of the dye resazurin, commercially-available as alamarBlue™ (Biosource International Inc., 820 Flynn Road, Camarillo, Calif.), was used for the cytotoxicity assays described herein. The assays and experiments described herein were conducted in substantially the same manner as described in the scientific literature, for example, in Magnani, E. and Bettini, E., “Resazurin detection of energy metabolism changes in serum-starved PC12 cells and of neuroprotective agent effect,” Brain Res Protoc., 2000 July; 5(3):266-72 and in Nociari M. M., Shalev A., Benias P., and Russo C. J, “A novel one-step, highly sensitive fluorometric assay to evaluate cell-mediated cytotoxicity,” Immunol. Methods 213, 157-167 (1998), see also U.S. Pat. No. 5,501,959, entitled “Antibiotic and Cytotoxic Drug Susceptibility Assays using Resazurin and Poising Agents,” the entire specification of which is incorporated herein by reference.

Row | Compound | IC50 (MDA-MB-231 (Breast)) | IC50 (MDA-MB-231 (Breast); Homo sapiens, MDA-MB-231, 48 h) | IC50 (PC3 (Prostate)) | IC50 (PC3 (Prostate); Homo sapiens, 48 h) | protective effects of IL-6 or IGF-1 [1] | Effect on Cell Viability (THP-1 cells; 100 ng/ml) | Effect on Cell Viability (THP-1 cells; 1 ug/ml) | Effect on Cell Viability (THP-1 cells; 10 ug/ml)
1 | C=CC(=O)C1(C)CCCC2(C)C3=CCC(C)(C=C)C[C@@H]3CC[C@H]12 (stereo in doubt) [NPI-1387, 1-[(1S,4aS,7R)-1,4a,7-Trimethyl-7-vinyl-1,2,3,4,4a,6,7,8,8a,9,10,10a-dodecahydro-1-phenanthrenyl]-2-propen-1-one] | 15 ± 4 µM | 18 ± 2 µM | 10 ± 2 µM | 11 ± 2 µM | does overcome the protective effects of IL-6 or IGF-1 | – | – | –
2 | C=C[C@@]1(C)CCC=C2[C@H]1CC[C@@H]1[C@](C)(C(=O)N3CCOCC3)CCC[C@@]21C [LT-1-85] | – | – | – | – | – | 100 | 100 | 80*
3 | C=C[C@@]1(C)CCC=C2[C@H]1CC[C@@H]1[C@](C)(C(=O)OC)CCC[C@@]21C [TTL3] | – | – | – | – | – | 100 | 100 | 100
